# Reference: patent publication US20040156869A1, “2-substituted quinazolin-4-ylamine analogues” (Neurogen Corporation, priority 2002, published 2004)
# Biological target: human capsaicin receptor (VR1) (Homo sapiens, UniProt Q8NER1)
# Test: Capsaicin receptor binding assay ([3H]RTX competition, VR1-transfected HEK293 membranes)
# human capsaicin receptor (VR1), sequence (Q8NER1 whole entry): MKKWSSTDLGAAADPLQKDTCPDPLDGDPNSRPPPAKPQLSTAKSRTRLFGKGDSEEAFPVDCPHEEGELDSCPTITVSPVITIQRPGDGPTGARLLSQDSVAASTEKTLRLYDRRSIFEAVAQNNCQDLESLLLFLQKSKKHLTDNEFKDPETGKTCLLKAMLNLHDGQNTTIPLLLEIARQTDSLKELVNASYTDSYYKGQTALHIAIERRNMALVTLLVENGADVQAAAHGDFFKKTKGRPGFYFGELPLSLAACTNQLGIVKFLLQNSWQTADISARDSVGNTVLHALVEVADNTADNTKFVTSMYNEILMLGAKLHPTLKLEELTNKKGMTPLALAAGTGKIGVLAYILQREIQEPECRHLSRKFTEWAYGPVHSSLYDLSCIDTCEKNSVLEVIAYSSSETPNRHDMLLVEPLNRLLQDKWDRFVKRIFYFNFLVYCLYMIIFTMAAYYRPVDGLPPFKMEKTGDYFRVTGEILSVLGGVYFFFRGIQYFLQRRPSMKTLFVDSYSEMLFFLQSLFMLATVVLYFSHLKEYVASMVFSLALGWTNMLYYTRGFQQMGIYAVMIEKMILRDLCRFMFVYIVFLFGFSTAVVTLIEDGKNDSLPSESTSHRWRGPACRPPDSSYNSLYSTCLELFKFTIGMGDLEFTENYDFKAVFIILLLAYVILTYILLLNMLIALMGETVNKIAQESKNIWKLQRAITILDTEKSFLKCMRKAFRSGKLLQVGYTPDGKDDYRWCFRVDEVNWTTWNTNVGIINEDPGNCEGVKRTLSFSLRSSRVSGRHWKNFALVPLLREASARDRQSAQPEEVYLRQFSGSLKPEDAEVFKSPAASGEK
row,SMILES,Ki
1,"COCc1nc(Nc2ccc(C(C)(C)COC)cc2)c2ccc(-c3ncccc3Cl)nc2n1 [Compound 61, [7-(3-Chloro-pyridin-2-yl)-2-methoxymethyl-pyrido[2,3-d]pyrimidin-4-yl]-[4-(2-methoxy-1,1-dimethyl-ethyl)-phenyl]-amine]",< 1000 nM
2,"COCc1nc(Nc2ccc(C(C)(C)C#N)cc2)c2ccc(-c3ncccc3Cl)nc2n1 [Compound 62, 2-{4-[7-(3-Chloro-pyridin-2-yl)-2-methoxymethyl-pyrido[2,3-d]pyrimidin-4-ylamino]-phenyl}-2-methyl-propionitrile]",< 1000 nM
3,"CCC(C)c1ccc(Nc2nc(COC)nc3nc(-c4ncccc4Cl)ccc23)cc1 (stereo not drawn) [Compound 63, (4-sec-Butyl-phenyl)-[7-(3-chloro-pyridin-2-yl)-2-methoxymethyl-pyrido[2,3-d]pyrimidin-4-yl]-amine]",< 1000 nM
4,"COCc1nc(Nc2ccc(C(C)(C)C)cc2)c2ncc(-c3ncccc3Cl)cc2n1 [Compound 65, (4-tert-Butyl-phenyl)-[7-(3-chloro-pyridin-2-yl)-2-methoxymethyl-pyrido[3,2-d]pyrimidin-4-yl]-amine]",< 1000 nM
5,"COCc1nc(Nc2ccc(C(C)C)cc2)c2ncc(-c3ncccc3Cl)cc2n1 [Compound 66, [7-(3-Chloro-pyridin-2-yl)-2-methoxymethyl-pyrido[3,2-d]pyrimidin-4-yl]-(4-isopropyl-phenyl)-amine]",< 1000 nM
6,"COCc1nc(Nc2ccc(C(C)(C)C)nc2)c2ccc(-c3ncccc3Cl)cc2n1 [Compound 68, (6-tert-Butyl-pyridin-3-yl)-[7-(3-chloro-pyridin-2-yl)-2-methoxymethyl-quinazolin-4-yl]-amine]",< 1000 nM
7,"COCCOCc1nc(Nc2ccc(C(C)(C)C)cc2)c2ccc(-c3ncccc3Cl)nc2n1 [Compound 75, (4-tert-Butyl-phenyl)-[7-(3-chloro-pyridin-2-yl)-2-(2-methoxy-ethoxymethyl)-pyrido[2,3-d]pyrimidin-4-yl]-amine]",< 1000 nM
8,"COCCOCc1nc(Nc2ccc(C(F)(F)F)cc2)c2ccc(-c3ncccc3Cl)nc2n1 [Compound 76, [7-(3-Chloro-pyridin-2-yl)-2-(2-methoxy-ethoxymethyl)-pyrido[2,3-d]pyrimidin-4-yl]-(4-trifluoromethyl-phenyl)-amine]",< 1000 nM
9,"COCCOCc1nc(Nc2ccc(C(C)C)cc2)c2ccc(-c3ncccc3Cl)nc2n1 [Compound 77, [7-(3-Chloro-pyridin-2-yl)-2-(2-methoxy-ethoxymethyl)-pyrido[2,3-d]pyrimidin-4-yl]-(4-isopropyl-phenyl)-amine]",< 1000 nM
10,"CCOCc1nc(Nc2ccc(C(C)(C)C)nc2)c2ccc(-c3ncccc3Cl)cc2n1 [Compound 82, (6-tert-Butyl-pyridin-3-yl)-[7-(3-chloro-pyridin-2-yl)-2-ethoxymethyl-quinazolin-4-yl]-amine]",< 1000 nM
11,"COCCOCc1nc(Nc2ccc(C(C)(C)C#N)cc2)c2ccc(-c3ncccc3Cl)nc2n1 [Compound 83, 2-{4-[7-(3-Chloro-pyridin-2-yl)-2-(2-methoxy-ethoxymethyl)-pyrido[2,3-d]pyrimidin-4-ylamino]-phenyl}-2-methyl-propionitrile]",< 1000 nM
12,"CCC(C)c1ccc(Nc2nc(COCCOC)nc3nc(-c4ncccc4Cl)ccc23)cc1 (stereo not drawn) [Compound 84, (4-sec-Butyl-phenyl)-[7-(3-chloro-pyridin-2-yl)-2-(2-methoxy-ethoxymethyl)-pyrido[2,3-d]pyrimidin-4-yl]-amine]",< 1000 nM
13,"COCCc1nc(Nc2ccc(C(F)(F)F)cc2)c2ccc(-c3ncccc3Cl)nc2n1 [Compound 85, [7-(3-Chloro-pyridin-2-yl)-2-(2-methoxy-ethyl)-pyrido[2,3-d]pyrimidin-4-yl]-(4-trifluoromethyl-phenyl)-amine]",< 1000 nM
14,"CCC(C)c1ccc(Nc2nc(COC)nc3nc(-c4ncccc4C(F)(F)F)ccc23)cc1 (stereo not drawn) [Compound 93, (4-sec-Butyl-phenyl)-[2-methoxymethyl-7-(3-trifluoromethyl-pyridin-2-yl)-pyrido[2,3-d]pyrimidin-4-yl]-amine]",< 1000 nM
15,"COCc1nc(Nc2ccc(C(C)C(F)(F)F)cc2)c2ccc(-c3ncccc3C(F)(F)F)nc2n1 (stereo not drawn) [Compound 94, [2-Methoxymethyl-7-(3-trifluoromethyl-pyridin-2-yl)-pyrido[2,3-d]pyrimidin-4-yl]-[4-(2,2,2-trifluoro-1-methyl-ethyl)-phenyl]-amine]",< 1000 nM
16,"COCc1nc(Nc2ccc(C(C)C)cc2)c2ccc(-c3ncccc3C)nc2n1 [Compound 96, (4-Isopropyl-phenyl)-[2-methoxymethyl-7-(3-methyl-pyridin-2-yl)-pyrido[2,3-d]pyrimidin-4-yl]-amine]",< 1000 nM
17,"CCC(C)c1ccc(Nc2nc(COC)nc3nc(-c4ncccc4C)ccc23)cc1 (stereo not drawn) [Compound 97, (4-sec-Butyl-phenyl)-[2-methoxymethyl-7-(3-methyl-pyridin-2-yl)-pyrido[2,3-d]pyrimidin-4-yl]-amine]",< 1000 nM

# The remaining lines, values ahead:
row,Ki,SMILES
1,< 1000 nM,"COCc1nc(Nc2ccc(C(C)C)cc2)c2ccc(-c3ncccc3Cl)cc2n1 [Compound 69, [7-(3-Chloro-pyridin-2-yl)-2-methoxymethyl-quinazolin-4-yl]-(4-isopropyl-phenyl)-amine]"
2,< 1000 nM,"COCc1nc(Nc2ccc(C(F)(F)F)cc2)c2ccc(-c3ncccc3Cl)cc2n1 [Compound 70, [7-(3-Chloro-pyridin-2-yl)-2-methoxymethyl-quinazolin-4-yl]-(4-trifluoromethyl-phenyl)-amine]"
3,< 1000 nM,"COCc1nc(Nc2ccc(C(C)(C)C)cc2)c2ccc(-c3ncccc3Cl)cc2n1 [Compound 71, (4-tert-Butyl-phenyl)-[7-(3-chloro-pyridin-2-yl)-2-methoxymethyl-quinazolin-4-yl]-amine]"
4,< 1000 nM,"COCc1nc(Nc2ccc(C(C)C)cc2)c2ccc(-c3ncccc3C(F)(F)F)cc2n1 [Compound 72, (4-Isopropyl-phenyl)-[2-methoxymethyl-7-(3-trifluoromethyl-pyridin-2-yl)-quinazolin-4-yl]-amine]"
5,< 1000 nM,"COCc1nc(Nc2ccc(C(C)(C)C)cc2)c2ccc(-c3ncccc3C(F)(F)F)cc2n1 [Compound 73, (4-tert-Butyl-phenyl)-[2-methoxymethyl-7-(3-trifluoromethyl-pyridin-2-yl)-quinazolin-4-yl]-amine]"
6,< 1000 nM,"COCc1nc(Nc2ccc(C(C)(C)C)nc2)c2ccc(-c3ncccc3C(F)(F)F)cc2n1 [Compound 74, (6-tert-Butyl-pyridin-3-yl)-[2-methoxymethyl-7-(3-trifluoromethyl-pyridin-2-yl)-quinazolin-4-yl]-amine]"
7,< 1000 nM,"COCc1nc(Nc2ccc(C(C)C)cc2)c2ccc(-c3ncccc3C)cc2n1 [Compound 78, (4-Isopropyl-phenyl)-[2-methoxymethyl-7-(3-methyl-pyridin-2-yl)-quinazolin-4yl]-amine]"
8,< 1000 nM,"CCOCc1nc(Nc2ccc(C(C)(C)C)cc2)c2ccc(-c3ncccc3Cl)cc2n1 [Compound 79, (4-tert-Butyl-phenyl)-[7-(3-chloro-pyridin-2-yl)-2-ethoxymethyl-quinazolin-4-yl]-amine]"
9,< 1000 nM,"CCOCc1nc(Nc2ccc(C(C)C)cc2)c2ccc(-c3ncccc3Cl)cc2n1 [Compound 80, [7-(3-Chloro-pyridin-2-yl)-2-ethoxymethyl-quinazolin-4-yl]-(4-isopropyl-phenyl)-amine]"
10,< 1000 nM,"CCOCc1nc(Nc2ccc(C(F)(F)F)cc2)c2ccc(-c3ncccc3Cl)cc2n1 [Compound 81, [7-(3-Chloro-pyridin-2-yl)-2-ethoxymethyl-quinazolin-4-yl]-(4-trifluoromethyl-phenyl)-amine]"
11,< 1000 nM,"FC(F)(F)c1ccc(Nc2nc(COC3CCOCC3)nc3cc(-c4ncccc4C(F)(F)F)ccc23)cc1 [Compound 86, [2-(Tetrahydro-pyran-4-yloxymethyl)-7-(3-trifluoromethyl-pyridin-2-yl)-quinazolin-4-yl]-(4-trifluoromethyl-phenyl)-amine]"
12,< 1000 nM,"CN(C)CCOCc1nc(Nc2ccc(C(F)(F)F)cc2)c2ccc(-c3ncccc3C(F)(F)F)cc2n1 [Compound 87, [2-(2-Dimethylamino-ethoxymethyl)-7-(3-trifluoromethyl-pyridin-2-yl)-quinazolin-4-yl]-(4-trifluoromethyl-phenyl)-amine]"
13,< 1000 nM,"COCc1nc(Nc2ccc(C(F)(F)F)cc2)c2ccc(-c3ncccc3C)nc2n1 [Compound 88, [2-Methoxymethyl-7-(3-methyl-pyridin-2-yl)-pyrido[2,3-d]pyrimidin-4-yl]-(4-trifluoromethyl-phenyl)-amine]"
14,< 1000 nM,"CN(C)CCCOCc1nc(Nc2ccc(C(F)(F)F)cc2)c2ccc(-c3ncccc3C(F)(F)F)cc2n1 [Compound 89, [2-(3-Dimethylamino-propoxymethyl)-7-(3-trifluoromethyl-pyridin-2-yl)-quinazolin-4-yl]-(4-trifluoromethyl-phenyl)-amine]"
15,< 1000 nM,"CCOCc1nc(Nc2ccc(C(F)(F)F)cc2)c2ccc(-c3ncccc3C)cc2n1 [Compound 90, [2-Ethoxymethyl-7-(3-methyl-pyridin-2-yl)-quinazolin-4-yl]-(4-trifluoromethyl-phenyl)-amine]"
16,< 1000 nM,"Cc1cccnc1-c1ccc2c(Nc3ccc(C(F)(F)F)cc3)nc(COC(C)C)nc2c1 [Compound 91, [2-Isopropoxymethyl-7-(3-methyl-pyridin-2-yl)-quinazolin-4-yl]-(4-trifluoromethyl-phenyl)-amine]"
17,< 1000 nM,"Cc1cccnc1-c1ccc2c(Nc3ccc(C(F)(F)F)cc3)nc(COC3CCOCC3)nc2c1 [Compound 92, [7-(3-Methyl-pyridin-2-yl)-2-(tetrahydro-pyran-4-yloxymethyl)-quinazolin-4-yl]-(4-trifluoromethyl-phenyl)-amine]"
18,< 1000 nM,"COCc1nc(Nc2ccc(C(C)(C)C)cc2)c2ccc(-c3ncccc3C)nc2n1 [Compound 95, (4-tert-Butyl-phenyl)-[2-methoxymethyl-7-(3-methyl-pyridin-2-yl)-pyrido[2,3-d]pyrimidin-4-yl]-amine]"
19,< 1000 nM,"COCc1nc(Nc2ccc(C(C)(C)C#N)cc2)c2ccc(-c3ncccc3C)nc2n1 [Compound 98, 2-{4-[2-Methoxymethyl-7-(3-methyl-pyridin-2-yl)-pyrido[2,3-d]pyrimidin-4-ylamino]-phenyl}-2-methyl-propionitrile]"
